This passage reports EC50 and inhibition results from patent publication US20170008888A1 (KYORIN PHARMACEUTICAL CO., LTD., priority 2014, published 2017).

What all share (assay type): cell-based
In test [1] the test system is immortalized normal human bronchial epithelial BEAS-2B cells. The test can be described thus: IL-17A- or IL-17F-mediated cytokine response by BEAS-2B cells. The settings on record: 48 h. The protocol:
The virally immortalized, normal human bronchial epithelial cell line BEAS-2B was purchased from ATCC (Manassas, Va.). Primary bronchial epithelial cells isolated from a patient diagnosed with asthma were obtained from Lonza (Allendale, N.J.). Both cells were maintained in complete Bronchial Epithelial Cell Growth Medium (BEGM) (Lonza). Cells were seeded at 1e5 cells/ml and incubated at 37° C. in a humidified atmosphere at 5% CO2 overnight to adhere. Cells were pre-treated with test compounds (10 μM down by ⅕ in a 3- or 4-point serial dilution series) for 1 h at 37° C. in a humidified atmosphere at 5% CO2. DMSO at a final concentration of 0.1% served as the non-inhibited control. Budesonide (Selleck Chemicals, Houston, Tex.), a clinically approved glucocorticoid steroid for the treatment of asthma, was tested as a positive control at 0.25 μM. Cells were stimulated with 50 ng/ml of either human recombinant IL-17A or IL-17F (eBioscience, San Diego, Calif.), for 48 h. Supernatant was then collected and analyzed for cytokine concentrations using the Bio-Plex Pro Human Cytokine 17-Plex Panel (Bio-Rad Laboratories, Hercules, Calif.) according to the manufacturer's instructions. Magnetic beads were measured on the Bio-Plex MAGPIX multiplex reader instrument using the accompanying xPONENT 4.2 acquisition software (Bio-Rad Laboratories). Data were analyzed via the Bio-Plex Manager software v6.1 (Bio-Rad Laboratories). For the primary asthmatic bronchial epithelial cells, five (+IL-17F) to thirteen (+IL-17A) cytokines were in range of detection under the conditions used. […] Select cytokines were analyzed for comparison using the BEAS-2B cell line.

The next test concerns human CD4+ T cells. The experiment in a line: Cytokines produced by human CD4+ T cells stimulated with PMA/ionomycin. The settings on record: 10 μM compound, PMA/ionomycin 20 h. The text has this:
Freshly isolated human peripheral blood mononuclear cells (PBMCs) were purchased from Astarte Biologics (Redmond, Wash.). CD4+ T cells were isolated from the PBMCs using the EasySep Negative Selection Human CD4+ T Cell Enrichment Kit (Stemcell Technologies, Vancouver, Canada) according to manufacturer's instructions briefly as follows: Unwanted cells were specifically labeled with a cocktail of bispecific tetrameric antibody complexes (TAC) against dextran and cell surface antigens (CD8, CD14, CD16, CD19, CD20, CD36, CD56, CD66b, CD123, TCRγ/δ, glycophorin A). Labeled cells were then targeted for removal by incubation with dextran-coated magnetic particles, leaving the desired CD4+ T cells.
Human CD4+ T cells, isolated as shown in protocol A, were seeded at 2e6 cells/ml in RPMI 1640 containing 10% (v/v) charcoal-dextran treated, heat inactivated FBS (Omega Scientific, Tarzana, Calif.), 0.05 mM 2-Mercaptoethanol (Sigma-Aldrich, St. Louis, Mo.), and 1×Pen/Strep Amphotericin B (Lonza, Allendale, N.J.). Cells were pre-treated with test compounds (10 μM) for 1 h at 37° C. in a humidified atmosphere at 5% CO2. Cells were then stimulated with 50 ng/ml phorbol 12-myristate 13-acetate (PMA)(Sigma-Aldrich, St. Louis, Mo.)+1 μg/ml ionomycin (Life Technologies, Grand Island, N.Y.) for 20 h at 37° C. in a humidified atmosphere at 5% CO2. Supernatant was collected and analyzed using Bio-Plex Pro Human Th17 Cytokine 15-Plex Panel (Bio-Rad Laboratories, Hercules, Calif.) as per manufacturer's protocols. Magnetic beads were read on the Bio-Plex MAGPIX multiplex reader instrument using the accompanying xPONENT 4.2 acquisition software (Bio-Rad Laboratories, Hercules, Calif.). Data were analyzed via the Bio-Plex Manager software v6.1 (Bio-Rad Laboratories).
IL-1β, IL-2, IL-7, and IL-12 (p70) were below the limit of detection under conditions used. The concentrations of the observed analytes of the DMSO control, from top to bottom as listed, are as follows: 31, 585, 24178, 22, 48, 91, 728, 94, 156, 705, 15, 1045, 5501 pg/ml.

The subject of test [2] is diseased primary human lung fibroblasts. The experiment in a line: Cytokine response by primary diseased human lung fibroblasts stimulated with IL-17A or IL-17F. As to conditions: Fibroblast, 48 h. The protocol: Primary lung fibroblasts isolated from a patient diagnosed with asthma were obtained from Lonza (Allendale, N.J.) and maintained in FGM-2 fibroblast growth medium (Lonza). Cells were seeded at 1e5 cells/ml and incubated at 37° C. in a humidified atmosphere at 5% CO2 overnight to adhere. Cells were pre-treated with test compounds (10 μM down by ⅕ in a 3- or 4-point serial dilution series) for 1 h at 37° C. in a humidified atmosphere at 5% CO2. DMSO at a final concentration of 0.1% served as the non-inhibited control. Cells were stimulated with 50 ng/ml of either human recombinant IL-17A or IL-17F (eBioscience, San Diego, Calif.), for 48 h. Supernatant was then collected and analyzed for cytokine concentrations using the Bio-Plex Pro Human Cytokine 17-Plex Panel (Bio-Rad Laboratories, Hercules, Calif.) according to the manufacturer's instructions. Magnetic beads were measured on the Bio-Plex MAGPIX multiplex reader instrument using the accompanying xPONENT 4.2 acquisition software (Bio-Rad Laboratories). Data were analyzed via the Bio-Plex Manager software v6.1 (Bio-Rad Laboratories). Only four (+IL-17F) to six (+IL-17A) cytokines were in range of detection under the conditions used.
G-CSF concentrations were below the limit of detection when cells were stimulated with IL-17F.

[3] abbreviates: +50 ng/ml IL-17A, read-out: EC50 values (μM), IL-6.
Setting [4] is: +50 ng/ml IL-17A, read-out: EC50 values (μM), IL-8.
The mark [5] stands for this setting: +50 ng/ml IL-17F, read-out: EC50 values (μM), IL-6.
The mark [6] stands for this setting: +50 ng/ml IL-17F, read-out: EC50 values (μM), IL-8.
Where [7] appears, read: read-out: Percent inhibition of G-CSF (relative to DMSO control).
[8] abbreviates: read-out: Percent inhibition of GM-CSF (relative to DMSO control).
The mark [9] stands for this setting: read-out: Percent inhibition of IFNγ (relative to DMSO control).
Setting [10] is: read-out: Percent inhibition of IL-4 (relative to DMSO control).
The mark [11] stands for this setting: read-out: Percent inhibition of IL-5 (relative to DMSO control).
Where [12] appears, read: read-out: Percent inhibition of IL-6 (relative to DMSO control).
Where [13] appears, read: read-out: Percent inhibition of IL-8 (relative to DMSO control).
The mark [14] stands for this setting: read-out: Percent inhibition of IL-10 (relative to DMSO control).
[15] abbreviates: read-out: Percent inhibition of IL-13 (relative to DMSO control).
[16] abbreviates: read-out: Percent inhibition of IL-17A (relative to DMSO control).
The mark [17] stands for this setting: read-out: Percent inhibition of MCP-1 (relative to DMSO control).
Where [18] appears, read: read-out: Percent inhibition of MIP-1β (relative to DMSO control).
The mark [19] stands for this setting: read-out: Percent inhibition of TNFα (relative to DMSO control).
[20] abbreviates: +50 ng/ml IL-17A, read-out: EC50 values (μM), G-CSF.
Setting [21] is: +50 ng/ml IL-17A, read-out: EC50 values (μM), MCP-1.
The mark [22] stands for this setting: +50 ng/ml IL-17F, read-out: EC50 values (μM), MCP-1.

Read-outs that look alike come from different tables or passages of the source. Where only a bound is given, the exact number is not on record here.

For orientation: EC50 means the midpoint of the concentration-response curve. The term inhibition denotes the drop in the measured response relative to a control, in per cent. Turning to `CCOc1cc(C(=O)N2CCC(N3CCCC3)CC2)ccc1Nc1cc2c(cn1)N(C)C(=O)c1ccccc1N2C` [Compound 46, 3-(2-Ethoxy-4-(4-(pyrrolidin-1-yl)piperidine-1-carbonyl)phenylamino)-5,11-dimethyl-5H-benzo[e]pyrido[3,4-b][1,4]diazepin-10(11H)-one], the EC50 in test [1] (setting [3]) was 0.51 µM; in test [1] (setting [4]), 0.4 µM; in test [1] (setting [5]), 0.38 µM; in test [1] (setting [6]), 0.32 µM. For the same compound, the inhibition at 10 µM in the test with human CD4+ T cells (setting [7]) was determined as 26.4%; in the test with human CD4+ T cells (setting [8]), 96.7%; with human CD4+ T cells (setting [9]), 18.3%; in the test with human CD4+ T cells (setting [10]) it was 11.7%; in the test with human CD4+ T cells (setting [11]), 49.1%; in the test with human CD4+ T cells (setting [12]), 89.3%. Moreover, the inhibition at 10 µM in the test on human CD4+ T cells (setting [13]) was -109%; with human CD4+ T cells (setting [14]), 97.3%; in the test on human CD4+ T cells (setting [15]) it was 32.1%; in the test with human CD4+ T cells (setting [16]) it was 52.2%; with human CD4+ T cells (setting [17]), 67.6%; with human CD4+ T cells (setting [18]) it was 63.9%. For the same compound, the inhibition at 10 µM in the test on human CD4+ T cells (setting [19]) is 64%.

As for `CCOc1cc(C(=O)NCC2CC2)ccc1Nc1cc2c(cn1)N(C)C(=O)c1ccccc1N2C` [Compound 57], the inhibition at 10 µM is 34.5% in the test on human CD4+ T cells (setting [7]); 95.9% with human CD4+ T cells (setting [8]); 50.9% with human CD4+ T cells (setting [9]); 31.4% in the test on human CD4+ T cells (setting [10]); 42.8% with human CD4+ T cells (setting [11]); 91.1% with human CD4+ T cells (setting [12]). Also, the inhibition at 10 µM with human CD4+ T cells (setting [13]) was -44.1%; in the test with human CD4+ T cells (setting [14]), 97.7%; in the test on human CD4+ T cells (setting [15]) it was 55.6%; in the test on human CD4+ T cells (setting [16]) it was 78.8%; with human CD4+ T cells (setting [17]), 70.6%; in the test on human CD4+ T cells (setting [18]), 56.2%. Besides, in the test with human CD4+ T cells (setting [19]), the inhibition at 10 µM stood at 58.3%.

As to `CCOc1cc(C(=O)N2CCNCC2)ccc1Nc1cc2c(cn1)N(C)C(=O)c1ccccc1N2C` [Compound 62], the inhibition at 10 µM in the test with human CD4+ T cells (setting [7]) was 27.6%; with human CD4+ T cells (setting [8]), 95.4%; in the test on human CD4+ T cells (setting [9]), 15.6%; in the test on human CD4+ T cells (setting [10]), -4.8%; in the test with human CD4+ T cells (setting [11]), 29.7%; in the test with human CD4+ T cells (setting [12]), 86.9%. The inhibition at 10 µM was -179% with human CD4+ T cells (setting [13]); 97.2% in the test on human CD4+ T cells (setting [14]); 19.8% in the test on human CD4+ T cells (setting [15]); 49.7% in the test with human CD4+ T cells (setting [16]); 66.1% with human CD4+ T cells (setting [17]); 66.9% with human CD4+ T cells (setting [18]). In addition, the inhibition at 10 µM in the test on human CD4+ T cells (setting [19]) stood at 70.1%.

With `CCOc1cc(C(=O)N2CCC(N3CCN(C)CC3)CC2)ccc1Nc1cc2c(cn1)N(C)C(=O)c1occc1N2C` [Compound 65], the EC50 turned out to be 3.5 µM in test [2] (setting [20]); 5.69 µM in test [2] (setting [3]); 0.48 µM in test [2] (setting [4]); 1.31 µM in test [2] (setting [21]); 2.49 µM in test [2] (setting [5]); 0.52 µM in test [2] (setting [6]). For the same compound, the EC50 in test [2] (setting [22]) was 1.85 µM. Moreover, the inhibition at 10 µM with human CD4+ T cells (setting [7]) was 36.1%; in the test with human CD4+ T cells (setting [8]), 89.5%; with human CD4+ T cells (setting [9]), 12.3%; in the test with human CD4+ T cells (setting [10]), 10.1%; in the test on human CD4+ T cells (setting [11]), 47.7%; in the test with human CD4+ T cells (setting [12]) it was 87.7%. The inhibition at 10 µM in the test with human CD4+ T cells (setting [14]) amounted to 98%; with human CD4+ T cells (setting [15]), 18.3%; in the test with human CD4+ T cells (setting [16]), 39.3%; in the test with human CD4+ T cells (setting [17]), 64.2%; in the test on human CD4+ T cells (setting [18]) it was 55.8%; in the test with human CD4+ T cells (setting [19]), 56.9%.

As for `CCOc1cc(C(=O)N2CC[C@@H](N(C)C)C2)ccc1Nc1cc2c(cn1)N(C)C(=O)c1ccccc1N2C` [Compound 115], the EC50 in test [1] (setting [3]) was 0.21 µM; in test [1] (setting [4]) it was 0.42 µM; in test [1] (setting [5]), 0.14 µM; in test [1] (setting [6]), 0.13 µM; in test [2] (setting [20]) it was 0.86 µM; in test [2] (setting [3]) it was 1.16 µM. Also, the EC50 in test [2] (setting [4]) is less than 0.08 µM; in test [2] (setting [21]), 0.35 µM; in test [2] (setting [5]), 0.95 µM; in test [2] (setting [6]), less than 0.08 µM; in test [2] (setting [22]), 0.36 µM.
